Our source for the GI50 and TGI values is PubChem BioAssay (NCI).

Test systems include 786-0 renal; OVCAR-4 ovarian; RPMI-8226 leukemia; SK-MEL-2 melanoma; SK-OV-3 ovarian; SNB-19 CNS; SNB-75 CNS; SW-620 colon; UACC-257 melanoma; UACC-62 melanoma.
Common to all, as to test: NCI anticancer screen, dose series, 48 h

Where “and” joins values, the source holds several entries; their conditions need not be identical. Equal entries are not always repeated.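 Compound exposure: 48 hours, 5 concentrations, 96-well plates. Abbreviation: GI50, concentration required for 50% inhibition of growth. TGI: total growth inhibition.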 Numbered stars: 1 amine (or outer) side, 2 acyl side, 3 side chain; on linkers, the order of the positions; unused ones are H or OH. Bridge positions count the residues as written; N and C are the ends. Square brackets hold non-standard residues; d marks the D form. Peptide text beside a SMILES is read from it. I, II: the chains in the order shown. Actinocin(1to9) = Cc1c2oc3c(C)ccc(C(=O)[*:2])c3nc-2c(C(=O)[*:1])c(N)c1=O; NMeY = CN[CH](Cc1ccc(O)cc1)C(=O)O; Sar = CNCC(=O)O A value given as a limit tells only on which side of the number the result lay.

`COc1ccc(CC2C(=O)OC(C)C(NC(=O)c3c4nc5c(C(=O)NC6C(=O)NC(C(C)C)C(=O)N7CCCC7C(=O)N(C)CC(=O)N(C)C(Cc7ccc(OC)cc7)C(=O)OC6C)ccc(C)c5oc-4c(C)c(=O)c3N)C(=O)NC(C(C)C)C(=O)N3CCCC3C(=O)N(C)CC(=O)N2C)cc1` (configuration not stated) (I: TVP[Sar][NMeY](Me) / II: TVP[Sar][NMeY](Me); ester I:1-I:C, II:1-II:C; linker I:N-II:N via Actinocin(1to9); configuration not given here): the GI50 with 786-0 renal was < 0.0333 µM and 0.00694 µM; with SK-MEL-2 melanoma it was < 0.01 µM and 0.0228 µM; in the assay with SK-OV-3 ovarian it was < 0.01 µM and 0.0582 µM. Further, the TGI in the assay on 786-0 renal was greater than 1 µM; in the assay on OVCAR-4 ovarian, less than 0.01 µM; in the assay with RPMI-8226 leukemia, less than 0.01 µM; with SNB-19 CNS it was 1.55 µM and > 0.804 µM; in the assay on SNB-75 CNS, 0.158 µM.
With `COC(=O)N/N=C(\C)CC(=O)Nc1ccc(Cl)cc1`, the TGI with 786-0 renal, with RPMI-8226 leukemia, with SK-MEL-2 melanoma, with SK-OV-3 ovarian, with SNB-75 CNS and with SW-620 colon was greater than 100 µM in each case. The TGI with UACC-257 melanoma and with UACC-62 melanoma was greater than 100 µM each time.
With `NC(=O)c1ccc(Cl)c([N+](=O)[O-])c1`, the TGI in the assay with 786-0 renal, in the assay with OVCAR-4 ovarian, in the assay with SK-OV-3 ovarian, with SNB-19 CNS, in the assay with SNB-75 CNS and in the assay with SW-620 colon was greater than 100 µM throughout. The TGI in the assay with UACC-257 melanoma and with UACC-62 melanoma was greater than 100 µM throughout.
Turning to `CCC(CO)Nc1nc2c(c(=O)n(C)c(=O)n2C)n1CCO` (configuration not stated), the TGI in the assay on 786-0 renal, in the assay with RPMI-8226 leukemia, in the assay with SK-MEL-2 melanoma, in the assay on SK-OV-3 ovarian, in the assay with SNB-19 CNS and in the assay with SNB-75 CNS was greater than 100 µM throughout. Besides, the TGI in the assay with SW-620 colon, in the assay with UACC-257 melanoma and in the assay with UACC-62 melanoma was greater than 100 µM in each case.
With `N#Cc1cccc(C2C3=C(COC3=O)N(CCO)c3cc4c(cc32)OCO4)c1` (configuration not stated), the GI50 is 2.04 µM with 786-0 renal; 10.9 µM in the assay with OVCAR-4 ovarian; 1.79 µM in the assay with RPMI-8226 leukemia; 2.08 µM with SK-OV-3 ovarian; 2.69 µM in the assay with SNB-19 CNS; 0.745 µM in the assay with SNB-75 CNS. Also, the GI50 is 1.53 µM with SW-620 colon, greater than 50 µM with UACC-257 melanoma and 1.66 µM in the assay with UACC-62 melanoma. Moreover, the TGI in the assay with 786-0 renal was greater than 50 µM; in the assay with OVCAR-4 ovarian, greater than 50 µM; in the assay on RPMI-8226 leukemia it was greater than 50 µM; with SK-OV-3 ovarian it was greater than 50 µM; in the assay on SNB-19 CNS, greater than 50 µM; in the assay with SNB-75 CNS, 2.76 µM. Moreover, the TGI in the assay on SW-620 colon, in the assay with UACC-257 melanoma and in the assay on UACC-62 melanoma was greater than 50 µM each time.
Regarding `O=C1CSC(c2c[nH]c3ccccc23)N1c1ccc(Cl)cc1Cl` (configuration not stated), the TGI in the assay on 786-0 renal, in the assay on OVCAR-4 ovarian, with RPMI-8226 leukemia, with SK-OV-3 ovarian, with SNB-19 CNS and in the assay with SNB-75 CNS was greater than 100 µM each time. The TGI in the assay on SW-620 colon, with UACC-257 melanoma and in the assay with UACC-62 melanoma was greater than 100 µM throughout.
For the compound `c1ccc(OC2=NC3=S(S2)SC(Oc2ccccc2)=N3)cc1`, the TGI in the assay with 786-0 renal turned out to be 30.6 µM; with RPMI-8226 leukemia, 24.8 µM; in the assay with SK-MEL-2 melanoma, 29.8 µM; in the assay on SK-OV-3 ovarian, 65.2 µM; in the assay with SNB-19 CNS, 45.1 µM; with SNB-75 CNS, 59.5 µM. Further, the TGI in the assay with SW-620 colon was found to be 35.2 µM; in the assay with UACC-257 melanoma, 34.7 µM; in the assay with UACC-62 melanoma, 37.6 µM.
With `CC(C)(C)OC(=O)N[C@@H](Cc1ccccc1)C(=O)N(Cc1ccccc1)C1(C(=O)NCc2ccccc2)CCN(Cc2ccccc2)CC1`, the GI50 with 786-0 renal is 2.99 µM; in the assay with OVCAR-4 ovarian, 3.23 µM; in the assay on RPMI-8226 leukemia it was 2.18 µM; in the assay with SK-OV-3 ovarian it was 3 µM; in the assay on SNB-19 CNS, 5.27 µM; in the assay on SNB-75 CNS it was 2.97 µM. Further, the GI50 with SW-620 colon was 3.49 µM; in the assay on UACC-257 melanoma, 2.54 µM; in the assay with UACC-62 melanoma it was 2.54 µM. Further, the TGI with 786-0 renal is 43.3 µM; in the assay with OVCAR-4 ovarian, greater than 100 µM; in the assay with RPMI-8226 leukemia it was 6.98 µM; in the assay on SK-OV-3 ovarian, greater than 100 µM; with SNB-19 CNS it was greater than 100 µM; in the assay on SNB-75 CNS, greater than 100 µM. Moreover, the results for the TGI in the assay on SW-620 colon, in the assay with UACC-257 melanoma and in the assay on UACC-62 melanoma were greater than 100 µM, greater than 100 µM and 7.88 µM, respectively.
In the case of `CCn1c2ccccc2c2cc(C(=O)c3ccc(C)c4ccccc34)ccc21`, the GI50 in the assay with 786-0 renal was 0.426 µM; with OVCAR-4 ovarian it was 3.32 µM; in the assay with RPMI-8226 leukemia, 0.389 µM; in the assay on SK-MEL-2 melanoma, 0.324 µM; in the assay on SK-OV-3 ovarian, 0.553 µM; in the assay on SNB-19 CNS, 0.438 µM. Also, the GI50 with SW-620 colon was 0.352 µM; in the assay with UACC-257 melanoma it was 39.3 µM; in the assay with UACC-62 melanoma it was 0.296 µM. Further, the TGI with 786-0 renal is greater than 100 µM; in the assay on OVCAR-4 ovarian, greater than 100 µM; in the assay on RPMI-8226 leukemia it was greater than 100 µM; in the assay on SK-MEL-2 melanoma it was 1.81 µM; in the assay with SK-OV-3 ovarian, greater than 100 µM; with SNB-19 CNS it was greater than 100 µM. Further, the TGI is greater than 100 µM in the assay with SW-620 colon, greater than 100 µM with UACC-257 melanoma and 3.52 µM in the assay on UACC-62 melanoma.
As to `CN(C)CCCNc1nc2ccccc2c2[nH]c3ccccc3c12`, the GI50 with 786-0 renal was 0.958 µM; in the assay with RPMI-8226 leukemia, 0.811 µM; in the assay with SK-MEL-2 melanoma, 6.69 µM; with SK-OV-3 ovarian, 1.49 µM; in the assay with SNB-19 CNS it was 1.57 µM; in the assay with SNB-75 CNS, 1.16 µM. In addition, the results for the GI50 with SW-620 colon, with UACC-257 melanoma and with UACC-62 melanoma were 0.387 µM, 3.48 µM and 4.01 µM, respectively. Besides, the TGI with 786-0 renal is 5.2 µM; in the assay with RPMI-8226 leukemia it was 1.95 µM; in the assay with SK-MEL-2 melanoma it was 38.8 µM; in the assay with SK-OV-3 ovarian it was 6.11 µM; in the assay with SNB-19 CNS it was 6.2 µM; in the assay on SNB-75 CNS it was 3.78 µM. Also, the TGI in the assay with SW-620 colon was 7.21 µM; in the assay with UACC-257 melanoma, 14.7 µM; in the assay on UACC-62 melanoma, 11.9 µM.
For the compound `O/N=C/c1ccc(O)c(O)c1`, the TGI in the assay on 786-0 renal, with OVCAR-4 ovarian, with SK-MEL-2 melanoma, in the assay on SK-OV-3 ovarian, with SNB-19 CNS and with SNB-75 CNS was greater than 100 µM each time. Besides, the TGI with SW-620 colon was 35.3 µM; in the assay with UACC-257 melanoma, greater than 100 µM; in the assay on UACC-62 melanoma, greater than 100 µM.
